Test results reported in US10072125B2, “Thiourea-containing dendrimer and thiourea-containing hyperbranched polymer as well as preparation methods thereof and applications thereof” (priority 2014, dated 2018).
In brackets after ≈: the same amount, converted by molar mass. Marks after values point to notes of the source that are not given here.

Tests used:
Test in all cases: Antibacterial performance test, MIC by broth dilution
Type in all cases: cell-based
Enterococcus faecalis = conditions: 24 h at 37° C., 5×10^5 CFU/mL, read-out: MIC E. faecalis
Experimental: (§1) To evaluate the antimicrobial activity of each generation of polythiourea dendrimer as described in Example 3, the MICs (minimal inhibitory concentrations) of these dendrimers against different bacteria strains, including Staphylococcus aureus, Enterococcus faecalis, Escherichia coli, Staphylococcus epidermidis, Enterobacter cloacae and Proteus valgaris were determined.
(§2) The strains stored at −20° C. were inoculated on MH agar plates and incubated overnight at 37° C. The monoclonal colonies were cultured in 3 mL nutrient broth at 37° C. to reach the logarithmic growth period. Then the bacteria were diluted with the MH broth to 0.5 millet turbidity standard and further diluted to 1:100 with MH broth as a stock. The diluted bacteria should be inoculated within 15 min. The polythiourea dendrimers were diluted with sterile water into 200 mg/mL, filtered and sterilized. Gentamicin and amikacin were used as positive controls for Gram-negative and Gram-positive bacteria, respectively. Dispense 100 μL of M-H broth into all wells of 96-well plate, and then pipette 100 μL of M-G1-PEG, M-G2-PEG, M-G3-PEG, M-G4-PEG, antibiotics and MH broth in the first column in the order of labeling. After mixing well with the gun, transfer 100 μL from each well in the first column to the corresponding well in the second column. Repeat the procedure to column 10 and discard […], from column 10. Then 100 μL of bacteria was added to each well. The final bacterial solution concentration per well was 5×10^5 CFU/mL. On the outer periphery of the 96-well plate, 200 μL of the drug-free suspension was added as a sterile control. At the same time subculture the suspension in the agar plate, for assessing the purity of bacteria. The inoculated 96-well plates were shaken on a micro-shaker for 1 min, mixed thoroughly and placed in a wet box. After incubated for 24 h at 37° C., the minimum drug concentration of the clear well was observed by the naked eye as the MIC of the drug. At the same time, it was examined whether the growth of the control well was good and the sterile control well was clear. The plate culture of the suspension was examined to determine whether it was contaminated and whether the MIC value of the control strain was in the control range. This assay was repeated three times.

Staphylococcus aureus = conditions: 24 h at 37° C., 5×10^5 CFU/mL, read-out: MIC S. aureus
Experimental: as §1, §2

[1] = test system: Staphylococcus epidermidis; conditions: 24 h at 37° C., 5×10^5 CFU/mL, read-out: MIC S. epidermidis
Experimental: as §1, §2

Enterobacter cloacae = conditions: 24 h at 37° C., 5×10^5 CFU/mL
Experimental: as §1, §2

Escherichia coli = conditions: 24 h at 37° C., 5×10^5 CFU/mL
Experimental: as §1, §2

Proteus valgaris = conditions: 24 h at 37° C., 5×10^5 CFU/mL
Experimental: as §1, §2

Row | Compound | MIC (Enterococcus faecalis) [µg/mL] | MIC (Staphylococcus aureus) [µg/mL] | MIC [1] [µg/mL] | MIC E. cloacae (Enterobacter cloacae) | MIC E. coli (Escherichia coli) | MIC P. valgaris (Proteus valgaris)
1 | NCC[C@H](O)C(=O)N[C@@H]1C[C@H](N)[C@@H](O[C@H]2O[C@H](CN)[C@@H](O)[C@H](O)[C@H]2O)[C@H](O)[C@H]1O[C@H]1O[C@H](CO)[C@@H](O)[C@H](N)[C@H]1O [Amikacin] | 4 (≈ 6.83 µM) | 2 (≈ 3.42 µM) | 0.5 (≈ 0.854 µM) |  |  | 
2 | Gentamicin |  |  |  | 2** μg/mL | 1** μg/mL | 2** μg/mL
